# Results: ChEMBL document CHEMBL5625197, “The mystery of titan hunter: Rationalized striking of the MAPK pathway via Newly synthesized 6-Indolylpyridone-3-Carbonitrile derivatives” (Eur J Med Chem, 2023)
# Tests used:
# HCT-116 [1] = test: cells; format: functional; conditions: Homo sapiens, HCT-116, 96 h, time 4 day, read-out: GI
# Description: Growth inhibition of human HCT-116 cells at 10 uM incubated for 4 days by MTT assay relative to control
# HOP-92 [2] = test: cells; format: functional; conditions: Homo sapiens, HOP-92, 96 h, time 4 day, read-out: GI
# Description: Growth inhibition of human HOP-92 cells at 10 uM incubated for 4 days by MTT assay relative to control
# SR [3] = test: cells; format: functional; conditions: Homo sapiens, 96 h, time 4 day, read-out: GI
# Description: Growth inhibition of human SR cells at 10 uM incubated for 4 days by MTT assay relative to control
# RXF 393 [4] = test: cells; format: functional; conditions: Homo sapiens, RXF 393, 96 h, time 4 day, read-out: GI
# Description: Growth inhibition of human RXF 393 cells at 10 uM incubated for 4 days by MTT assay relative to control
# [5] = Cytotoxicity against human HEK293 cells assessed as cell growth inhibition incubated for 4 days by MTT assay
# SR [6] = test: Cytotoxicity against human SR cells assessed as cell growth inhibition incubated for 4 days by MTT assay; format: functional; conditions: 96 h, time 4 day
# [7] = Cytotoxicity against human PCS-800-011 cells assessed as cell growth inhibition incubated for 4 days by MTT assay
# HCT-116 [8] = test: Cytotoxicity against human HCT-116 cells assessed as cell growth inhibition incubated for 4 days by MTT assay; format: functional; conditions: HCT-116, 96 h, time 4 day
# RXF 393 [9] = test: Cytotoxicity against human RXF 393 cells assessed as cell growth inhibition incubated for 4 days by MTT assay; format: functional; conditions: RXF 393, 96 h, time 4 day
# [10] = Selectivity index, ratio of GI50 for cytotoxicity against human HEK293 cells to GI50 for cytotoxicity against human RXF 393 cells
# [11] = Selectivity index, ratio of GI50 for cytotoxicity against human PCS-800-011 cells to GI50 for cytotoxicity against human SR cells; format: toxicity, cell-based; conditions: PCS-800-011 cells versus SR cells, read-out: RatioGI50
# HOP-92 [12] = test: Cytotoxicity against human HOP-92 cells assessed as cell growth inhibition incubated for 4 days by MTT assay; format: functional; conditions: HOP-92, 96 h, time 4 day
# [13] = Cytotoxicity against human PCS-800-011 cells assessed as fold change in cell growth inhibition incubated for 4 days by MTT assay; format: toxicity, cell-based; conditions: pcs-800-011, 96 h, time 4 day
# [14] = Cytotoxicity against human FHC cells assessed as cell growth inhibition incubated for 4 days by MTT assay
# [15] = Selectivity index, ratio of GI50 for cytotoxicity against human MRC5 cells to GI50 for cytotoxicity against human HOP-92 cells
# [16] = Selectivity index, ratio of GI50 for cytotoxicity against human FHC cells to GI50 for cytotoxicity against human HCT-116 cells; format: toxicity, cell-based; conditions: FHC cells versus HCT-116 cells, read-out: RatioGI50
# [17] = Cytotoxicity against human MRC5 cells assessed as cell growth inhibition incubated for 4 days by MTT assay
# [18] = target: Hepatocyte growth factor receptor (Homo sapiens, UniProt P08581); test: Inhibition of c-Met (unknown origin)
# HOP-92 [19] = test: Inhibition of cell migration in human HOP-92 cells assessed as fold decrease in cell count incubated for 15 to 20 mins by crystal violet staining based trans-well assay; format: functional; conditions: time 15-20 min
# HOP-92 [20] = test: Induction of cell cycle arrest in human HOP-92 cells assessed as accumulation of cells at G0/G1 phase (reference value: 54.83 %); format: functional
# HOP-92 [21] = test: Induction of cell cycle arrest in human HOP-92 cells assessed as accumulation of cells at S phase (reference value: 29.57 %); format: functional
# HOP-92 [22] = test: Inhibition of cell invasion in human HOP-92 cells incubated for 15 to 20 mins by crystal violet staining based trans-well assay relative to control; format: functional; conditions: time 15-20 min
# HOP-92 [23] = test: Induction of apoptosis in human HOP-92 cells assessed as fold change in Bcl-2 gene expression by RT-PCR analysis; format: functional
# HOP-92 [24] = test: Induction of apoptosis in human HOP-92 cells assessed as early apoptotic rate by Annexin V/ PI staining based flow cytometry (reference value: 0.42 %); format: functional
# HOP-92 [25] = test: Induction of apoptosis in human HOP-92 cells assessed as fold change in p53 gene expression by RT-PCR analysis; format: functional
# HOP-92 [26] = test: Induction of cell cycle arrest in human HOP-92 cells assessed as cell debris (reference value: 2.18 %); format: functional
# HOP-92 [27] = test: Inhibition of cell migration in human HOP-92 cells incubated for 15 to 20 mins by crystal violet staining based trans-well assay relative to control; format: functional; conditions: time 15-20 min
# HOP-92 [28] = test: Induction of cell cycle arrest in human HOP-92 cells assessed as cell aggregation (reference value: 1.77 %); format: functional
# HOP-92 [29] = test: Induction of apoptosis in human HOP-92 cells assessed as necrosis rate by Annexin V/ PI staining based flow cytometry (reference value: 1.6 %); format: functional
# HOP-92 [30] = test: Induction of apoptosis in human HOP-92 cells assessed as fold change in ratio of Bax/Bcl-2 gene expression by RT-PCR analysis; format: functional
# HOP-92 [31] = test: Induction of apoptosis in human HOP-92 cells assessed as fold change in caspase-9 gene expression by RT-PCR analysis; format: functional
# HOP-92 [32] = test: Induction of apoptosis in human HOP-92 cells assessed as fold change in caspase-3 gene expression by RT-PCR analysis; format: functional
# HOP-92 [33] = test: Induction of apoptosis in human HOP-92 cells assessed as total apoptotic rate by Annexin V/ PI staining based flow cytometry (reference value: 2.28 %); format: functional
# HOP-92 [34] = test: Inhibition of colony formation in human HOP-92 cells incubated for 24 hrs by crystal violet staining based assay relative to control; format: functional
# HOP-92 [35] = test: Induction of apoptosis in human HOP-92 cells assessed as fold change in Bax gene expression by RT-PCR analysis; format: functional
# HOP-92 [36] = test: Induction of apoptosis in human HOP-92 cells assessed as fold change in PARP1 gene expression by RT-PCR analysis; format: functional
# HOP-92 [37] = test: Induction of apoptosis in human HOP-92 cells assessed as late apoptotic rate by Annexin V/ PI staining based flow cytometry (reference value: 0.26 %); format: functional
# HOP-92 [38] = test: Induction of apoptosis in human HOP-92 cells assessed as fold change in TNFR1 gene expression by RT-PCR analysis; format: functional
# HOP-92 [39] = test: Induction of cell cycle arrest in human HOP-92 cells assessed as accumulation of cells at G2/M phase (reference value: 15.6 %); format: functional
# HOP-92 [40] = test: Induction of apoptosis in human HOP-92 cells assessed as fold change in caspase-8 gene expression by RT-PCR analysis; format: functional
smiles,measurement,setting,value
N#Cc1c(-c2ccc(F)c(F)c2)cc(-c2c[nH]c3ccccc23)[nH]c1=O,inhibition of growth at 10 µM,HCT-116 [1],51%
same,inhibition of growth at 10 µM,HOP-92 [2],53.1%
same,inhibition of growth at 10 µM,SR [3],55.9%
same,inhibition of growth at 10 µM,RXF 393 [4],65.7%
N#Cc1c(-c2ccc(C(F)(F)F)cc2)cc(-c2c[nH]c3ccccc23)[nH]c1=O,inhibition of growth at 10 µM,HCT-116 [1],67.5%
same,inhibition of growth at 10 µM,HOP-92 [2],56.7%
same,inhibition of growth at 10 µM,SR [3],48.5%
same,inhibition of growth at 10 µM,RXF 393 [4],71.6%
N#Cc1c(-c2ccc(O)c(O)c2)cc(-c2c[nH]c3ccccc23)[nH]c1=O,inhibition of growth at 10 µM,HCT-116 [1],9.54%
same,inhibition of growth at 10 µM,HOP-92 [2],31.2%
same,inhibition of growth at 10 µM,SR [3],69.8%
same,inhibition of growth at 10 µM,RXF 393 [4],11%
N#Cc1c(-c2ccc(Cl)c(Cl)c2)cc(-c2c[nH]c3ccccc23)[nH]c1=O,GI50 at 96 h,[5],42.6 µM
same,GI50,SR [6],9.17 µM
same,inhibition of growth at 10 µM,HCT-116 [1],76.5%
same,GI50 at 96 h,[7],73.6 µM
same,GI50,HCT-116 [8],10.6 µM
same,GI50,RXF 393 [9],16.6 µM
same,inhibition of growth at 10 µM,HOP-92 [2],73.3%
same,RatioGI50,[10],2.56
same,inhibition of growth at 10 µM,SR [3],71.8%
same,selectivity ratio,[11],8.02
same,GI50,HOP-92 [12],3.44 µM
same,fold change (FC),[13],3.5
same,GI50 at 96 h,[14],41 µM
same,RatioGI50,[15],16.3
same,inhibition of growth at 10 µM,RXF 393 [4],75.8%
same,selectivity ratio,[16],3.86
same,GI50 at 96 h,[17],56.1 µM
N#Cc1c(-c2ccccc2Cl)cc(-c2c[nH]c3ccccc23)[nH]c1=O,inhibition of growth at 10 µM,HCT-116 [1],47.6%
same,inhibition of growth at 10 µM,HOP-92 [2],55.1%
same,inhibition of growth at 10 µM,SR [3],90%
same,inhibition of growth at 10 µM,RXF 393 [4],51.3%
CCOc1ccn(-c2ccc(F)cc2)c(=O)c1C(=O)Nc1ccc(Oc2ccnc(N)c2Cl)c(F)c1 [BMS-777607],IC50,[18],0.128 µM
COc1cccc2c1C(=O)c1c(O)c3c(c(O)c1C2=O)C[C@@](O)(C(=O)CO)C[C@@H]3O[C@H]1C[C@H](N)[C@H](O)[C@H](C)O1 [DOXORUBICIN],fold change (FC),HOP-92 [19],3.8
same,Activity,HOP-92 [20],48.53%
same,Activity,HOP-92 [21],21.73%
same,inhibition (INH),HOP-92 [22],41.96%
same,fold change (FC),HOP-92 [23],0.31
same,Activity,HOP-92 [24],16.64%
same,fold change (FC),HOP-92 [25],6.97
same,Activity,HOP-92 [26],2.44%
same,inhibition (INH),HOP-92 [27],73.54%
same,Activity,HOP-92 [28],2.15%
same,Activity,HOP-92 [29],9.28%
same,fold change (FC),HOP-92 [30],21.4
same,fold change (FC),HOP-92 [31],12.4
same,fold change (FC),HOP-92 [32],14.3
same,Activity,HOP-92 [33],52.49%
same,inhibition (INH),HOP-92 [34],44.9%
same,fold change (FC),HOP-92 [35],6.62
same,fold change (FC),HOP-92 [36],0.23
same,Activity,HOP-92 [37],26.57%
same,fold change (FC),HOP-92 [38],0.24
same,Activity,HOP-92 [39],29.74%
same,fold change (FC),HOP-92 [40],4.36
CN[C@@H]1C[C@H]2O[C@@](C)([C@@H]1OC)n1c3ccccc3c3c4c(c5c6ccccc6n2c5c31)C(=O)NC4 [STAUROSPORINE],GI50,RXF 393 [9],0.95 µM
